Measured values: US11873291B2, “Quinoline cGAS antagonist compounds” (ImmuneSensor Therapeutics, Inc., priority 2020, dated 2024)

These compounds were tested against T1, recombinant human cGAS (aa147-522) (Homo sapiens, UniProt Q8N884) (assay: In vitro inhibition assay of cGAS activity (ATP consumption, KinaseGlo Max)). Settings: Table 2, read-out: cGAS Inhibition Results IC50.
T1 construct: recombinant human cGAS (aa147-522); His6-SUMO (cleaved yes); made in house; host or cells: E. coli BL21/pLys
Format: biochemical
In short: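 De-tagged recombinant human cGAS (aa147-522, 1.5 μg/mL) was incubated 20 min at 37 °C with herring testis DNA, 6.6 μM ATP and 0.1 mM GTP in Tris pH 7.5/MgCl2 buffer plus serial compound dilutions. Remaining ATP was read by KinaseGlo Max luminescence, and IC50 was fitted from % ATP consumption versus log concentration.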

T1 sequence (Q8N884 147-522): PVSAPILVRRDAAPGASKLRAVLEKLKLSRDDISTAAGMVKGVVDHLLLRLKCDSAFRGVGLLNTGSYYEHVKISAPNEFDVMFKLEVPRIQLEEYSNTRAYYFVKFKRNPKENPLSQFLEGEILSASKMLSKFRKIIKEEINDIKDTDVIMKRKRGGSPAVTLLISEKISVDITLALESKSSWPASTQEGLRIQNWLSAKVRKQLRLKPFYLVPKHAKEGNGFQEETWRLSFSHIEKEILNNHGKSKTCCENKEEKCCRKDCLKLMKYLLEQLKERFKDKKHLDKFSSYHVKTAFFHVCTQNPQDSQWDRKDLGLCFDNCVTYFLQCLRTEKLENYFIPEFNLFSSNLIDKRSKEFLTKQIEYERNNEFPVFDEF

Structure (SMILES) | IC50 [nM]
Cc1ncn(-c2cc(-c3ccccc3)nc3cc(Cl)ccc23)c1C [I-61] | > 30000
NS(=O)(=O)CC1CCCN1c1cc(-n2ccnc2)c2ccc(Cl)c(Cl)c2n1 (stereo not shown) [I-148] | < 2000
CS(=O)(=O)N[C@@H]1C[C@@H](C(=O)O)N(c2cc(-n3ccnc3)c3ccc(Cl)c(Cl)c3n2)C1 [I-351] | < 2000
NC(=O)C1CN(c2cc(-c3cn[nH]c3)c3ccc(Cl)c(Cl)c3n2)CCO1 (stereo not shown) [I-371] | < 2000
O=C(O)C1CN(c2cc(-c3cn[nH]c3)c3ccc(Cl)c(Cl)c3n2)CCO1 (stereo not shown) [I-369] | < 2000
Cc1cc(-c2ccn[nH]2)c2ccc(Cl)c(Cl)c2n1 [I-407] | > 30000
Oc1c(Br)ccc2c(-n3ccnc3)cc(-c3ccccc3)nc12 [I-53, 7-bromo-4-(1H-imidazol-1-yl)-2-phenylquinolin-8-ol] | 2000 to 30000
Clc1ccc2c(-n3ccnc3)cc(OCc3ccccc3)nc2c1 [I-277, 2-(benzyloxy)-7-chloro-4-(1H-imidazol-1-yl)quinoline] | 2000 to 30000
O=C(O)c1cc(C(=O)O)cc(-c2cc(-n3ccnc3)c3ccc(Cl)cc3n2)c1 [I-28] | < 2000
Cc1cc(N2CCCC(O)CC2)c2ccc(Cl)c(Cl)c2n1 (stereo not shown) [I-311] | > 30000
O=C(O)c1cccc(COc2cc(-n3ccnc3)c3ccc(Cl)cc3n2)c1 [I-281] | 2000 to 30000
O=S(=O)(NC1CCCN(c2cc(-n3ccnc3)c3ccc(Cl)cc3n2)C1)C1CC1 (stereo not shown) [I-100] | < 2000
CN(CCNS(=O)(=O)c1ncc[nH]1)c1cc(-n2ccnc2)c2ccc(Cl)cc2n1 [I-230] | 2000 to 30000
O=C(O)[C@@H]1C[C@@H](F)CN1c1cc(-c2cn[nH]c2)c2ccc(Cl)c(Cl)c2n1 [I-430] | < 2000
NS(=O)(=O)CC(Cc1ccccc1)Nc1cc(-n2ccnc2)c2ccc(Cl)c(Cl)c2n1 (stereo not shown) [I-208, 2-((7,8-dichloro-4-(1H-imidazol-1-yl)quinolin-2-yl)amino)-3-phenylpropane-1-sulfonamide] | 2000 to 30000
NS(=O)(=O)CCNc1cc(-c2cn[nH]c2)nc2ccc(C(F)(F)F)cc12 [I-301] | > 30000
C[C@H](Nc1cc(-c2cn[nH]c2)nc2c(Cl)c(Cl)ccc12)C(=O)O [I-285] | < 2000
O=C(CO)N1CCOC(CNc2cc(-c3cn[nH]c3)c3ccc(Cl)c(Cl)c3n2)C1 (stereo not shown) [I-222] | < 2000
O=C(O)C1(O)CCCN(c2cc(-n3ccnc3)c3ccc(Cl)c(Cl)c3n2)C1 (stereo not shown) [I-124] | < 2000
NS(=O)(=O)CCNc1cc(NCC(=O)O)nc2c(Cl)c(Cl)ccc12 [I-319, (7,8-dichloro-4-((2-sulfamoylethyl)amino)quinolin-2-yl)glycine] | > 30000
O=C(O)c1cc(Br)cc(-c2cc(-n3ccnc3)c3ccc(Cl)cc3n2)c1 [I-27] | > 30000
CS(=O)(=O)NC1CCCN(c2cc(-n3ccnc3)c3ccc(Cl)cc3n2)C1 (stereo not shown) [I-105, N-(1-(7-chloro-4-(1H-imidazol-1-yl)quinolin-2-yl)piperidin-3-yl)methanesulfonamide] | 2000 to 30000
CN(CCNC(=O)c1ccccc1)c1cc(-n2ccnc2)c2ccc(Cl)cc2n1 [I-237] | 2000 to 30000
OC[C@@H](Nc1cc(-n2ccnc2)c2ccc(Cl)c(Cl)c2n1)c1ccccc1 [I-246] | 2000 to 30000
O=C(CO)NC1(C(=O)O)CCCN(c2cc(-n3ccnc3)c3ccc(Cl)c(Cl)c3n2)C1 (stereo not shown) [I-125, 1-(7,8-dichloro-4-(1H-imidazol-1-yl)quinolin-2-yl)-3-(2-hydroxyacetamido) piperidine-3-carboxylic acid] | < 2000

Structure (SMILES) | IC50 [nM]
NC1CCCN(c2cc(-n3ccnc3)c3ccc(Cl)cc3n2)C1 (stereo not shown) [I-108, 1-(7-chloro-4-(1H-imidazol-1-yl)quinolin-2-yl)piperidin-3-amine] | > 30000
O=C(O)C1CN(c2cc(-n3ccnc3)c3ccc(Cl)c(Cl)c3n2)CCC1O (stereo not shown) [I-332] | < 2000
NS(=O)(=O)OCC1CCCN(c2cc(-n3ccnc3)c3ccc(Cl)c(Cl)c3n2)C1 (stereo not shown) [I-118] | < 2000
CN(CCNS(=O)(=O)c1ccccc1C(F)(F)F)c1cc(-n2ccnc2)c2ccc(Cl)cc2n1 [I-228] | > 30000
Oc1ccc(-c2cc(-n3ccnc3)c3ccc(Cl)c(Cl)c3n2)cc1 [I-47] | < 2000
O=C(O)C[C@@H]1CCCN1c1cc(-c2cn[nH]c2)c2ccc(Cl)c(Cl)c2n1 [I-444] | < 2000
C[C@@]1(C(=O)O)CCCN1c1cc(-n2ccnc2)c2ccc(Cl)c(Cl)c2n1 [I-436] | 2000 to 30000
O=C(O)Cc1ccccc1-c1cc(-n2ccnc2)c2ccc(Cl)cc2n1 [I-14] | > 30000
NS(=O)(=O)C1CCCN(c2cc(-c3cn[nH]c3)c3ccc(Cl)c(Cl)c3n2)C1 (stereo not shown) [I-373] | < 2000
O=C(O)c1cc(-c2cc(Cl)c3ccc(Cl)c(Cl)c3n2)ccc1O [I-75, 2-Hydroxy-5-(4,7,8-trichloroquinolin-2-yl)benzoic acid] | > 30000
COC[C@@H]1CCCN1c1cc(-n2ccnc2)c2ccc(Cl)c(Cl)c2n1 [I-147] | < 2000
O=S(=O)(NC1CCCN(c2cc(-n3ccnc3)c3ccc(Cl)cc3n2)C1)c1ncc[nH]1 (stereo not shown) [I-101] | < 2000
Clc1c(-n2ccnc2)cc2c(-n3ccnc3)cc(-c3ccccc3)nc2c1Cl [I-52] | > 30000
c1ccc2c(-n3ccnc3)ccnc2c1 [I-410] | > 30000
COc1c(Cl)ccc2c(-c3cn[nH]c3)cc(NCCO)nc12 [I-403] | > 30000
OC[C@@H]1CCCN1c1cc(-c2cn[nH]c2)nc2c(Cl)c(Cl)ccc12 [I-298] | > 30000
COc1c(-c2ccccc2)ccc2c(-n3ccnc3)cc(-c3ccccc3)nc12 [I-51] | > 30000
O=C(O)C1CCN(C(=O)C[C@@H]2CCCN2c2cc(-n3ccnc3)c3ccc(Cl)c(Cl)c3n2)C1 (stereo partly shown) [I-339] | < 2000
CN(CCO)c1cc(-c2cn[nH]c2)nc2c(Cl)c(Cl)ccc12 [I-297] | > 30000
O=C(O)c1ccc(-c2cc(-n3ccnc3)c3ccc(Cl)cc3n2)cc1 [I-4] | 2000 to 30000
COC(=O)[C@@H]1C[C@@H](O)CN1c1cc(-c2cn[nH]c2)c2ccc(Cl)c(Cl)c2n1 [I-434] | 2000 to 30000
Clc1ccc2c(-n3ccnc3)cc(NCc3ccncc3)nc2c1 [I-353, 7-chloro-4-(1H-imidazol-1-yl)-N-(pyridin-4-ylmethyl)quinolin-2-amine] | > 30000
Clc1ccc2c(-n3ccnc3)cc(NCCN3CCOCC3)nc2c1Cl [I-215] | 2000 to 30000
O=C(CO)NC[C@@H]1CCCN1c1cc(-n2ccnc2)c2ccc(Cl)c(Cl)c2n1 [I-154, (S)—N-((1-(7,8-dichloro-4-(1H-imidazol-1-yl)quinolin-2-yl)pyrrolidin-2-yl)methyl)-2-hydroxyacetamide] | < 2000
CN(CCNS(C)(=O)=O)c1cc(-n2ccnc2)c2ccc(Cl)c(Cl)c2n1 [I-225] | < 2000

Same assay, conditions: Table 3, read-out: cGAS Inhibition Results IC50

Structure (SMILES) | IC50 [nM]
O=C(O)[C@@H]1CC[C@H](c2ccccc2)N1c1cc(-n2ccnc2)c2ccc(Cl)c(Cl)c2n1 [I-487] | < 2000
O=C(O)CCCCCOC[C@@H]1CCCN1c1cc(-n2ccnc2)c2ccc(Cl)c(Cl)c2n1 [I-675, (S)-6-((1-(7,8-dichloro-4-(1H-imidazol-1-yl)quinolin-2-yl)pyrrolidin-2-yl)methoxy)hexanoic acid] | < 2000
NC(=O)[C@@H]1C[C@@H](O)CN1c1cc(-n2ccnc2)c2ccc(Cl)c(Cl)c2n1 [I-502] | 2000 to 30000
O=C(O)CO[C@@H]1CCN(c2cc(-n3ccnc3)c3ccc(Cl)c(Cl)c3n2)C1 [I-766] | < 2000
CN(CCC(=O)O)C(=O)C[C@@H]1CCCN1c1cc(-n2ccnc2)c2ccc(Cl)c(Cl)c2n1 [I-525] | < 2000
O=C(O)[C@@H]1C[C@H](C(F)(F)F)CN1c1cc(-n2ccnc2)c2ccc(Cl)c(Cl)c2n1 [I-508] | < 2000
O=C(O)CCOC[C@H]1CCN(c2cc(-n3ccnc3)c3ccc(Cl)c(Cl)c3n2)C1 [I-772] | 2000 to 30000
O=C(O)[C@@H]1C[C@H](O)CN1c1cc(-n2ccnc2)c2ccc(Cl)c(Cl)c2n1 [I-455] | < 2000
COC(=O)CCN(CCC(=O)OC)C[C@@H]1CCCN1c1cc(-n2ccnc2)c2ccc(Cl)c(Cl)c2n1 [I-757, dimethyl 3,3′-(((1-(7,8-dichloro-4-(1H-imidazol-1-yl)quinolin-2-yl)pyrrolidin-2-yl)methyl)azanediyl)(S)-dipropionate] | 2000 to 30000
O=C(O)Cc1ccc(OC[C@@H]2CCCN2c2cc(-n3ccnc3)c3ccc(Cl)c(Cl)c3n2)cc1 [I-738] | < 2000
O=C(O)C1CN(C(=O)[C@@H]2CCCN2c2cc(-n3ccnc3)c3ccc(Cl)c(Cl)c3n2)CCO1 (stereo partly shown) [I-549] | < 2000
NC(=O)CNC(=O)[C@@H]1CCCN1c1cc(-n2ccnc2)c2ccc(Cl)c(Cl)c2n1 [I-608] | 2000 to 30000
O=C(C[C@@H]1CCCN1c1cc(-n2ccnc2)c2ccc(Cl)c(Cl)c2n1)NS(=O)(=O)C(F)F [I-540] | < 2000
CC(C)(C)OC(=O)C[C@@H]1CCCN1c1cc(-n2ccnc2)c2ccc(Cl)c(Cl)c2n1 [I-573] | 2000 to 30000
O=C(O)CCO[C@H]([C@@H]1CCCN1c1cc(-n2ccnc2)c2ccc(Cl)c(Cl)c2n1)C(F)(F)F [I-721] | 2000 to 30000
CN(CCNC(=O)CO)c1cc(-n2ccnc2)c2ccc(Cl)c(Cl)c2n1 [I-613] | < 2000
CN(CC(=O)NCCC(N)=O)c1cc(-n2ccnc2)c2ccc(Cl)c(Cl)c2n1 [I-568] | 2000 to 30000
O=C(O)c1ccc(C2CCCN2c2cc(-n3ccnc3)c3ccc(Cl)c(Cl)c3n2)s1 (stereo not shown) [I-468] | 2000 to 30000
O=C(NS(=O)(=O)C(F)F)[C@@H]1CCCN1c1cc(-n2ccnc2)c2ccc(Cl)c(Cl)c2n1 [I-545] | < 2000
O=C(O)CCNC(=O)[C@@H]1CN(c2cc(-n3ccnc3)c3ccc(Cl)c(Cl)c3n2)CCO1 [I-555] | < 2000
CN(CCC(=O)N1CCC(S(N)(=O)=O)C1)c1cc(-n2ccnc2)c2ccc(Cl)c(Cl)c2n1 (stereo not shown) [I-566] | < 2000
CN(CCS(=O)(=O)N1CCCC(C(=O)O)C1)c1cc(-n2ccnc2)c2ccc(Cl)c(Cl)c2n1 (stereo not shown) [I-631] | < 2000
CN(CCS(=O)(=O)NCCCO)c1cc(-n2ccnc2)c2ccc(Cl)c(Cl)c2n1 [I-632] | < 2000
